Experimental data as given in patent US20260226071A1, “2, 4-DIANILINOPYRIMIDINE-BASED AURORA-A KINASE SELECTIVE DEGRADATION INDUCING COMPOUNDS” (UPPTHERA, INC., priority 2023, published 2026).

How the values were obtained:
Aurora kinase A (AURKA) = biological target: T1, Aurora kinase A (AURKA) (Homo sapiens, UniProt O14965); assay: Luciferase assay for AURKA in HeLa LgBit (AURKA-HiBit KI) cell line; assay type: cell-based; details: HeLa LgBit (AURKA-HiBit KI) cells, measured after 12 hours
T1 construct: endogenous in cells; host or cells: HeLa LgBit (AURKA-HiBit KI), CRISPR/Cas9 knock-in at the endogenous AURKA locus
T1 sequence (O14965 1-403): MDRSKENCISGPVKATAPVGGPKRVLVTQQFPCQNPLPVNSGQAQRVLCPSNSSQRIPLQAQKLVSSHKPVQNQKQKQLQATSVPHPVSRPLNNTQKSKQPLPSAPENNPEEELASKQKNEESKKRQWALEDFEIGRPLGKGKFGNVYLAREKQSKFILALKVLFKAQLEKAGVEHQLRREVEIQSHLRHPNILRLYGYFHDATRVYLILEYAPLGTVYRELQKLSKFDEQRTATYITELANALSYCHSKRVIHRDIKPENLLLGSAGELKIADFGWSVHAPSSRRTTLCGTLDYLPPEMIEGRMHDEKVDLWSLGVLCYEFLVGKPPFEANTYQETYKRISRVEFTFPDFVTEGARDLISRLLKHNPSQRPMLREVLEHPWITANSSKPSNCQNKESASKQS
Procedure, shortened: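 Test compounds (10 nM or 100 nM) added to AURKA-HiBit knock-in HeLa LgBit cells that had been pre-loaded with Endurazine for 2 h following an 18 h culture at 3×10^4 cells. Endogenous AURKA-HiBit level followed by luminescence (470-480 nm), measured after 12 h.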

NCI-H446 cell line = assay: Cell viability assay for NCI-H446 cell line; assay type: cell-based; details: Homo sapiens, NCI-H446, 120 h; H446 cells, 5 days culture, EZ-Cytox; read-out: IC50 value (Level)
Procedure, shortened: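 Viability was measured by absorbance at 450 nm after 4 h with EZ-Cytox, following 5-day exposure of NCI-H446 cells (RPMI 1640, 10% FBS, 37 °C, 5% CO2) to 3-fold serial dilutions from 1000 nM down to 0.15 nM, added 24 h post-seeding.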

Row | luminescence value (Level) (Aurora kinase A (AURKA); 10 nM compound) | luminescence value (Level) (Aurora kinase A (AURKA); 100 nM compound) | Structure (SMILES) | IC50 (NCI-H446 cell line)
1 | B (B is 0.3 to 0.5) | A (A is <0.2) | O=C1CCC(Nc2ccc(N3CCN(CC4CC45CCN(C(=O)c4ccc(Nc6ncc(F)c(Nc7ccc(C(=O)Nc8ccccc8Cl)cc7)n6)cc4)CC5)CC3)cc2)C(=O)N1 (stereo not drawn) [Compound 30, N-(2-chlorophenyl)-4-((2-((4-(1-((4-(4-((2,6-dioxopiperidin-3-yl)amino)phenyl)piperazin-1-yl)methyl)-6-azaspiro[2.5]octane-6-carbonyl)phenyl)amino)-5-fluoropyrimidin-4-yl)amino)benzamide] | < 0.05 µM
2 | B (B is 0.3 to 0.5) | A (A is <0.2) | O=C1CCC(c2ccc(N3CC4(CCN(CC5CCN(NC(=O)c6ccc(Nc7ncc(F)c(Nc8ccc(C(=O)Nc9ccccc9Cl)cc8)n7)cc6)CC5)CC4)C3)c(F)c2)C(=O)N1 (stereo not drawn) [Compound 78, N-(2-chlorophenyl)-4-[[2-[4-[[4-[[2-[4-(2,6-dioxo-3-piperidyl)-2-fluoro-phenyl]-2,7-diazaspiro[3.5]nonan-7-yl]methyl]-1-piperidyl]carbamoyl]anilino]-5-fluoro-pyrimidin-4-yl]amino]benzamide] | 0.05 to 0.1 µM
3 | B (B is 0.3 to 0.5) | A (A is <0.2) | O=C1CCC(c2ccc(N3CCC(CN4CCC5(CC4)CC(NC(=O)c4ccc(Nc6ncc(F)c(Nc7ccc(C(=O)Nc8ccccc8Cl)cc7)n6)cc4)C5)CC3)c(F)c2)C(=O)N1 (stereo not drawn) [Compound 23, N-(2-chlorophenyl)-4-((2-((4-((7-((1-(4-(2,6-dioxopiperidin-3-yl)-2-fluorophenyl)piperidin-4-yl)methyl)-7-azaspiro[3.5]nonan-2-yl)carbamoyl)phenyl)amino)-5-fluoropyrimidin-4-yl)amino)benzamide] | < 0.05 µM
4 | C (C is 0.5 to 0.7) | A (A is <0.2) | O=C1CCC(c2ccc(N3CCC(CN4CCN(C(=O)Cc5ccc(Nc6ncc(F)c(Nc7ccc(C(=O)Nc8ccccc8Cl)cc7)n6)cc5)CC4)CC3)cc2)C(=O)N1 (stereo not drawn) [Compound 1, N-(2-chlorophenyl)-4-((2-((4-(2-(4-((1-(4-(2,6-dioxopiperidin-3-yl)phenyl)piperidin-4-yl)methyl)piperazin-1-yl)-2-oxoethyl)phenyl)amino)-5-fluoropyrimidin-4-yl)amino)benzamide] | 0.1 to 0.15 µM
5 | C (C is 0.5 to 0.7) | B (B is 0.2 to 0.4) | O=C1CCC(c2ccc(N3CCN(Cc4ccc(NC(=O)c5ccc(Nc6ncc(F)c(Nc7ccc(C(=O)Nc8ccccc8Cl)cc7)n6)cc5)cc4)CC3)cc2)C(=O)N1 (stereo not drawn) [Compound 13, N-(2-chlorophenyl)-4-((2-((4-((4-((4-(4-(2,6-dioxopiperidin-3-yl)phenyl)piperazin-1-yl)methyl)phenyl)carbamoyl)phenyl)amino)-5-fluoropyrimidin-4-yl)amino)benzamide] | > 0.2 µM
6 | A (A is <0.3) | A (A is <0.2) | O=C1CCC(c2ccc(N3CCN(CCC4CCN(NC(=O)c5ccc(Nc6ncc(F)c(Nc7ccc(C(=O)Nc8ccccc8Cl)cc7)n6)cc5)CC4)CC3)cc2F)C(=O)N1 (stereo not drawn) [Compound 82, N-(2-chlorophenyl)-4-((2-((4-((4-(2-(4-(4-(2,6-dioxopiperidin-3-yl)-3-fluorophenyl)piperazin-1-yl)ethyl)piperidin-1-yl)carbamoyl)phenyl)amino)-5-fluoropyrimidin-4-yl)amino)benzamide] | < 0.05 µM
7 | A (A is <0.3) | A (A is <0.2) | O=C1CCC(c2ccc(N3CCN(CCC4CCN(NC(=O)c5ccc(Nc6ncc(F)c(Nc7ccccc7Cl)n6)cc5)CC4)CC3)cc2)C(=O)N1 (stereo not drawn) [Compound 57, 4-((4-((2-chlorophenyl)amino)-5-fluoropyrimidin-2-yl)amino)-N-(4-(2-(4-(4-(2,6-dioxopiperidin-3-yl)phenyl)piperazin-1-yl)ethyl)piperidin-1-yl)benzamide] | 0.1 to 0.15 µM
8 | A (A is <0.3) | A (A is <0.2) | O=C1CCC(c2ccc(N3CCN(CCC4CCN(NC(=O)c5ccc(Nc6ncc(F)c(Nc7ccc(NC(=O)c8ccccc8F)cc7)n6)cc5)CC4)CC3)cc2)C(=O)N1 (stereo not drawn) [Compound 104, N-[4-[[2-[4-[[4-[2-[4-[4-(2,6-dioxo-3-piperidyl)phenyl]piperazin-1-yl]ethyl]-1-piperidyl]carbamoyl]anilino]-5-fluoro-pyrimidin-4-yl]amino]phenyl]-2-fluoro-benzamide] | < 0.05 µM
9 | A (A is <0.3) | A (A is <0.2) | O=C1CCC(c2ccc(N3CCN(C(=O)CN4CCC(NC(=O)c5ccc(Nc6ncc(F)c(Nc7ccc(C(=O)Nc8ccccc8Cl)cc7)n6)cc5)CC4)CC3)cc2)C(=O)N1 (stereo not drawn) [Compound 51, N-(2-chlorophenyl)-4-((2-((4-((1-(2-(4-(4-(2,6-dioxopiperidin-3-yl)phenyl)piperazin-1-yl)-2-oxoethyl)piperidin-4-yl)carbamoyl)phenyl)amino)-5-fluoropyrimidin-4-yl)amino)benzamide] | < 0.05 µM
10 | B (B is 0.3 to 0.5) | A (A is <0.2) | O=C1CCC(Nc2ccc(N3CCC(CN4CCN(C(=O)Cc5ccc(Nc6ncc(F)c(Nc7ccc(C(=O)Nc8ccccc8Cl)cc7)n6)cc5)CC4)CC3)cc2)C(=O)N1 (stereo not drawn) [Compound 24, N-(2-chlorophenyl)-4-((2-((4-(2-(4-((1-(4-((2,6-dioxopiperidin-3-yl)amino)phenyl)piperidin-4-yl)methyl)piperazin-1-yl)-2-oxoethyl)phenyl)amino)-5-fluoropyrimidin-4-yl)amino)benzamide] | < 0.05 µM
11 | B (B is 0.3 to 0.5) | A (A is <0.2) | CC(CN1CCN(c2ccc(C3CCC(=O)NC3=O)cc2)CC1)C1CCN(NC(=O)c2ccc(Nc3ncc(F)c(Nc4ccc(C(=O)Nc5ccccc5Cl)cc4)n3)cc2)CC1 (stereo not drawn) [Compound 6, N-(2-chlorophenyl)-4-((2-((4-((4-(1-(4-(4-(2,6-dioxopiperidin-3-yl)phenyl)piperazin-1-yl)propan-2-yl)piperidin-1-yl)carbamoyl)phenyl)amino)-5-fluoropyrimidin-4-yl)amino)benzamide] | < 0.05 µM
12 | A (A is <0.3) | A (A is <0.2) | O=C1CCC(c2ccc(N3CCC(CN4CC5(CC(NC(=O)c6ccc(Nc7ncc(F)c(Nc8ccc(C(=O)Nc9ccccc9Cl)cc8)n7)cc6)C5)C4)CC3)c(F)c2)C(=O)N1 (stereo not drawn) [Compound 77, N-(2-chlorophenyl)-4-((2-((4-((2-((1-(4-(2,6-dioxopiperidin-3-yl)-2-fluorophenyl)piperidin-4-yl)methyl)-2-azaspiro[3.3]heptan-6-yl)carbamoyl)phenyl)amino)-5-fluoropyrimidin-4-yl)amino)benzamide] | 0.05 to 0.1 µM
13 | B (B is 0.3 to 0.5) | A (A is <0.2) | O=C1CCC(c2ccc(N3CCC(CCC(=O)N4CCC(NC(=O)c5ccc(Nc6ncc(F)c(Nc7ccc(C(=O)Nc8ccccc8Cl)cc7)n6)cc5)CC4)CC3)cc2)C(=O)N1 (stereo not drawn) [Compound 12, N-(2-chlorophenyl)-4-((2-((4-((1-(3-(1-(4-(2,6-dioxopiperidin-3-yl)phenyl)piperidin-4-yl)propanoyl)piperidin-4-yl)carbamoyl)phenyl)amino)-5-fluoropyrimidin-4-yl)amino)benzamide] | < 0.05 µM
14 | A (A is <0.3) | A (A is <0.2) | O=C1CCC(Nc2ccc(N3CCN(CCC4CCN(NC(=O)c5ccc(Nc6ncc(F)c(Nc7ccc(C(=O)Nc8ccccc8Cl)cc7)n6)cc5)CC4)CC3)c(F)c2)C(=O)N1 (stereo not drawn) [Compound 55, N-(2-chlorophenyl)-4-((2-((4-((4-(2-(4-(4-((2,6-dioxopiperidin-3-yl)amino)-2-fluorophenyl)piperazin-1-yl)ethyl)piperidin-1-yl)carbamoyl)phenyl)amino)-5-fluoropyrimidin-4-yl)amino)benzamide] | < 0.05 µM
15 | C (C is 0.5 to 0.7) | A (A is <0.2) | CN(Cc1ccc(Nc2ncc(F)c(Nc3ccc(C(=O)Nc4ccccc4Cl)cc3)n2)cc1)C1CCN(CCN2CCN(c3ccc(C4CCC(=O)NC4=O)cc3)CC2)CC1 (stereo not drawn) [Compound 100, N-(2-chlorophenyl)-4-((2-((4-(((1-(2-(4-(4-(2,6-dioxopiperidin-3-yl)phenyl)piperazin-1-yl)ethyl)piperidin-4-yl)(methyl)amino)methyl)phenyl)amino)-5-fluoropyrimidin-4-yl)amino)benzamide] | > 0.2 µM
